Assay results as given in ChEMBL document CHEMBL3393039, “Anthranilic acid derivatives as nuclear receptor modulators--development of novel PPAR selective and dual PPAR/FXR ligands” (Bioorg Med Chem, 2015).
In brackets after ≈: the same amount, converted by molar mass. Activity calls are given as the source filed them. The rule behind the calls is not given here.

Columns and labels:
[1] = Aqueous solubility of the compound; format: physicochemical; conditions: aqueous medium (not specified further)
[2] = target: T1, Peroxisome proliferator-activated receptor alpha (Homo sapiens, UniProt Q07869); assay: Transactivation of Gal4-tagged PPARalpha ligand binding domain (unknown origin) expressed in COS7 cells measured after overnight incubation by luciferase reporter gene assay; format: cell-based, COS-7
T1 sequence (Q07869 whole entry): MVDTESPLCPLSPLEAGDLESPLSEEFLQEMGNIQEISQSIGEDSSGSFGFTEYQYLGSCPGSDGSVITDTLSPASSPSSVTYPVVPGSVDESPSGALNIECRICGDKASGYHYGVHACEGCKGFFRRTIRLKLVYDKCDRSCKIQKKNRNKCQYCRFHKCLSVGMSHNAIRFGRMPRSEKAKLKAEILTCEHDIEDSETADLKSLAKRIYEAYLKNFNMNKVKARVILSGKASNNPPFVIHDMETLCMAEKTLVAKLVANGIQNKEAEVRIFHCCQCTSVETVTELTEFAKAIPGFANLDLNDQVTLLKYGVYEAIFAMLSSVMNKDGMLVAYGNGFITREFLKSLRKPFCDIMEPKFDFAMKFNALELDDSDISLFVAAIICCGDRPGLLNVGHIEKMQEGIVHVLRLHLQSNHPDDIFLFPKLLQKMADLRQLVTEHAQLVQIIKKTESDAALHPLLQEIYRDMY

[3] = target: T2, Peroxisome proliferator-activated receptor gamma (Homo sapiens, UniProt P37231); assay: Transactivation of Gal4-tagged PPARgamma ligand binding domain (unknown origin) expressed in COS7 cells measured after overnight incubation by luciferase reporter gene assay; format: cell-based, COS-7
T2 sequence (P37231 whole entry): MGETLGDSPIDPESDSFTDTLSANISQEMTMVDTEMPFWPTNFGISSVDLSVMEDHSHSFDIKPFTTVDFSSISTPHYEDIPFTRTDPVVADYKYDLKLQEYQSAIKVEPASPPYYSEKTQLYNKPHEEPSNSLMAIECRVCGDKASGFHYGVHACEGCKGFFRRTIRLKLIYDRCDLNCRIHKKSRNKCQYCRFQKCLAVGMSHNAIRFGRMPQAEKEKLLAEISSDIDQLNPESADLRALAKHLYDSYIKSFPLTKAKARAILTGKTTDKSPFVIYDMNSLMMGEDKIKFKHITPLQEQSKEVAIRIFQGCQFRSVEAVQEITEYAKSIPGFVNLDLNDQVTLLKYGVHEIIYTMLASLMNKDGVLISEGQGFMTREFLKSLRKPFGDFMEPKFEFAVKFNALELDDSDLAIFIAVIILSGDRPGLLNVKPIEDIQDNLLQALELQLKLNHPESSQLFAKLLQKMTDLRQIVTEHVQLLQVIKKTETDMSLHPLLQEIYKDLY

[4] = target: T3, Peroxisome proliferator-activated receptor gamma (Homo sapiens) (UniProt P37231); assay: Transactivation of Gal4-tagged PPARgamma ligand binding domain (unknown origin) expressed in COS7 cells measured after overnight incubation by luciferase reporter gene assay relative to piaglitazone; format: cell-based; conditions: Chlorocebus aethiops; COS-7
T3 sequence (whole entry): T2 sequence (P37231 whole entry)

[5] = target: T4, Peroxisome proliferator-activated receptor delta (Homo sapiens, UniProt Q03181); assay: Transactivation of Gal4-tagged PPARdelta ligand binding domain (unknown origin) expressed in COS7 cells measured after overnight incubation by luciferase reporter gene assay; format: cell-based, COS-7
T4 sequence (Q03181 whole entry): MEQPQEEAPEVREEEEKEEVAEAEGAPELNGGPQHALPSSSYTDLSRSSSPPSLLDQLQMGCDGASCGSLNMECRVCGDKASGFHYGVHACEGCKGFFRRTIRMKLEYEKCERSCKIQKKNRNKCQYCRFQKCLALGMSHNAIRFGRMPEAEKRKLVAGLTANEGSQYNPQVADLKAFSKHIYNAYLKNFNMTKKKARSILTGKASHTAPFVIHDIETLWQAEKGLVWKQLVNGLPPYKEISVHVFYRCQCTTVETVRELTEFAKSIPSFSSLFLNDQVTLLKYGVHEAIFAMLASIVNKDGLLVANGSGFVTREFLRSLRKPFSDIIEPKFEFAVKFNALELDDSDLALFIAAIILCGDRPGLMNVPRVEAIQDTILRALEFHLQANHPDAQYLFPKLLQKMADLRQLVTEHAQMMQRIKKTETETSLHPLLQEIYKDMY

[6] = target: T5, Peroxisome proliferator-activated receptor delta (Homo sapiens) (UniProt Q03181); assay: Transactivation of Gal4-tagged PPARdelta ligand binding domain (unknown origin) expressed in COS7 cells measured after overnight incubation by luciferase reporter gene assay relative to L165,041; format: cell-based; conditions: Chlorocebus aethiops; COS-7
T5 sequence (whole entry): T4 sequence (Q03181 whole entry)

Bile acid receptor = target: T6, Bile acid receptor (Homo sapiens, UniProt Q96RI1); assay: Transactivation of human FXR expressed in human HeLa cells incubated for 24 hrs by luciferase reporter gene assay; format: cell-based
T6 sequence (Q96RI1 whole entry): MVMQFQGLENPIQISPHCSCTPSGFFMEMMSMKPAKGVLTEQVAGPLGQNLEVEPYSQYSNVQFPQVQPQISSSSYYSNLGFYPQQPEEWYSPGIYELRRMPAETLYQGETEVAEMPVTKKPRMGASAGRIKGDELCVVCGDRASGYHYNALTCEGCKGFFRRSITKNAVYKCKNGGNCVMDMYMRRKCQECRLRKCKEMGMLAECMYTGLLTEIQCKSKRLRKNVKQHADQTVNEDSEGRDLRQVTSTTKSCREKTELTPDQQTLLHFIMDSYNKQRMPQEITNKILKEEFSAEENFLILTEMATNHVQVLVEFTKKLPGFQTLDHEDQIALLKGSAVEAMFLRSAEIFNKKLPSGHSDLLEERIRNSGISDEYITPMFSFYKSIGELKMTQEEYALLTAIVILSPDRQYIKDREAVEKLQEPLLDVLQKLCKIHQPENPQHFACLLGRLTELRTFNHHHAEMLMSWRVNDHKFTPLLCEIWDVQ

[7] = target: T7, Bile acid receptor (Homo sapiens) (UniProt Q96RI1); assay: Transactivation of human FXR expressed in human HeLa cells incubated for 24 hrs by luciferase reporter gene assay relative to GW4064; format: cell-based
T7 sequence (whole entry): T6 sequence (Q96RI1 whole entry)

[8] = Antiproliferative activity against human HepG2 cells assessed as cell viability at 5 uM after 48 hrs by WST1 assay (reference value: 100%); format: cell-based; conditions: read-out: Activity
[9] = Antiproliferative activity against human HepG2 cells assessed as cell viability at 10 uM after 48 hrs by WST1 assay (reference value: 100%); format: cell-based; conditions: read-out: Activity
[10] = Antiproliferative activity against human HepG2 cells assessed as cell viability at 50 uM after 48 hrs by WST1 assay (reference value: 100%); format: cell-based; conditions: read-out: Activity
[11] = Cytotoxic activity against human HepG2 cells assessed as LDH release at 5 uM after 48 hrs by LDH release assay (reference value: 100%)
[12] = Cytotoxic activity against human HepG2 cells assessed as LDH release at 10 uM after 48 hrs by LDH release assay (reference value: 100%)
[13] = Cytotoxic activity against human HepG2 cells assessed as LDH release at 30 uM after 48 hrs by LDH release assay (reference value: 100%)
[14] = target: T8, Peroxisome proliferator-activated receptor alpha (Homo sapiens) (UniProt Q07869); assay: Transactivation of Gal4-tagged PPARalpha ligand binding domain (unknown origin) expressed in COS7 cells at 10 uM measured after overnight incubation by luciferase reporter gene assay; format: cell-based; conditions: COS-7
T8 sequence (whole entry): T1 sequence (Q07869 whole entry)

[15] = target: T5, Peroxisome proliferator-activated receptor delta (Homo sapiens); assay: Transactivation of Gal4-tagged PPARdelta ligand binding domain (unknown origin) expressed in COS7 cells at 30 uM measured after overnight incubation by luciferase reporter gene assay; format: cell-based; conditions: COS-7
[16] = target: T7, Bile acid receptor (Homo sapiens); assay: Antagonist activity against human FXR expressed in human HeLa cells incubated for 24 hrs by luciferase reporter gene assay; format: cell-based
Homo sapiens [17] = species on record: Homo sapiens; assay: Selectivity index, ratio of EC50 for Gal4-tagged PPARgamma ligand binding domain (unknown origin) to EC50 for human FXR
Homo sapiens [18] = species on record: Homo sapiens; assay: Selectivity index, ratio of EC50 for Gal4-tagged PPARalpha ligand binding domain (unknown origin) to EC50 for human FXR
Homo sapiens [19] = species on record: Homo sapiens; assay: Selectivity index, ratio of EC50 for Gal4-tagged PPARdelta ligand binding domain (unknown origin) to EC50 for human FXR
[20] = Metabolic stability in Sprague-Dawley rat liver microsomes assessed as parent compound remaining at 10 uM measured after 15 mins in presence of NADPH regenerating system by HPLC method (reference value: 97.6 +/- 0.8%); format: ADME; conditions: read-out: Stability
[21] = Metabolic stability in Sprague-Dawley rat liver microsomes assessed as parent compound remaining at 10 uM measured after 30 mins in presence of NADPH regenerating system by HPLC method (reference value: 97.6 +/- 0.8%); format: ADME; conditions: read-out: Stability
[22] = Metabolic stability in Sprague-Dawley rat liver microsomes assessed as parent compound remaining at 10 uM measured after 60 mins in presence of NADPH regenerating system by HPLC method (reference value: 97.6 +/- 0.8%); format: ADME; conditions: read-out: Stability
[23] = target: PPAR delta/gamma (Homo sapiens) (UniProt P37231+Q03181); assay: Selectivity index, ratio of EC50 for Gal4-tagged PPARgamma ligand binding domain (unknown origin) to EC50 for Gal4-tagged PPARdelta ligand binding domain (unknown origin)
Homo sapiens [24] = species on record: Homo sapiens; assay: Selectivity index, ratio of EC50 for Gal4-tagged PPARalpha ligand binding domain (unknown origin) to EC50 for Gal4-tagged PPARdelta ligand binding domain (unknown origin)

solubility [1] [µM]	EC50 [2] [µM]	EC50 [3] [µM]	max activation [4] [%]	EC50 [5] [µM]	max activation [6] [%]	EC50 (Bile acid receptor) [µM]	max activation [7] [%]	max activation [14] [%]	Activity [15]	Structure (SMILES)	viability at 48 h, 5 µM [8] [%]	viability at 48 h, 10 µM [9] [%]	viability at 48 h, 50 µM [10] [%]	LDH release (% cytotoxicity) at 48 h, 5 µM [11] [%]	LDH release (% cytotoxicity) at 48 h, 10 µM [12] [%]	LDH release (% cytotoxicity) at 48 h, 30 µM [13] [%]	other results
1.7 (≈ 0.766 µg/mL)	3	2.6	125	6.4	175	0.7	18.8	–	–	O=C(O)Cc1cccc(NC(=O)c2ccccc2NC(=O)c2ccc(-c3ccccc3)cc2)c1	96.5	79.5	33.6	-4.5	-1	72.9	–
–	–	5.4	132	–	–	–	–	18	inactive	CC(C)(C)c1ccc(C(=O)Nc2ccc(Cl)cc2C(=O)Nc2cccc(C(=O)O)c2)cc1	–	–	–	–	–	–	inhibition [16]: Active
–	–	9	256	–	–	0.12	22	44	inactive	CC(C)(C)c1ccc(C(=O)Nc2cc(Cl)ccc2C(=O)Nc2cccc(C(=O)O)c2)cc1	–	–	–	–	–	–	Ratio EC50 (Homo sapiens [17]): 75; Ratio EC50 (Homo sapiens [18]): 100; Ratio EC50 (Homo sapiens [19]): 100
6 (≈ 2.55 µg/mL)	14.4	18	335	1.3	147	–	20.9	–	–	O=C(O)Cc1cccc(NC(=O)c2ccccc2NC(=O)c2ccc3ccccc3c2)c1	99.5	115	89.3	-2.4	0.3	23.3	remaining at 0.25 h, 10 µM [20]: 91.4%; remaining at 0.5 h, 10 µM [21]: 82.3%; remaining at 1 h, 10 µM [22]: 80.5%; Ratio EC50 [23]: 13; Ratio EC50 (Homo sapiens [24]): 11
